Data on 7 molecules can be found in patent US20240208972A1, “LRRK2 INHIBITORS AND USES THEREOF” (NEURON23, INC., priority 2022, published 2024).

SMILES strings stand for the structures.

One may read the IC50 as the concentration that gives 50% inhibition. A lower IC50 goes with greater potency in that assay.

Series [1] concerns the target T1, wt human LRRK2, catalytic site (Homo sapiens, UniProt Q5S007).
T1 construct: wt human LRRK2, catalytic site, catalytic site (ThermoFisher/USA); purchased ThermoFisher
Description: TR-FRET LanthaScreen Tb Kinase Activity Assay, LRRK2 kinase inhibition. Type of series: biochemical. The settings on record: 2 nM wt human LRRK2, 400 nM peptide, 38 μM ATP. As to the method:
The compounds disclosed herein were tested for their inhibitory effect on LRRK2 kinase according to the following procedures.
The protocol for basic TR-FRET LanthaScreen Tb Kinase Activity Assay inhibitor studies is as follows. LanthaScreen Kinase Activity Assays (ThermoFisher/USA) to evaluate inhibitors were performed by addition of 100 nL of test compound in the corresponding DMSO dilutions/5 L of kinase/fluorescein-ERM(LRRKtide) peptide mixture, Compound & kinase were pre-incubated for 15 minutes, then 5 μl of ATP into 384 well small volume plates. After incubation for 120 minutes at room temperature, the detection reagents containing Tb-anti-pLRRKtide antibody were added to monitor the phosphrylation level of peptide. Then, after 60 min minutes incubation at room temperature plates were read in Envision. Data analysis of emission ratios was according to the LanthaScreen Tb Kinase Activity Assay protocol.
Kinase and assay components were adjusted to final concentrations according to the kit protocol. For LRRK2: 2 nM wt human LRRK2, catalytic site, catalytic site (ThermoFisher/USA), 400 nM peptide, 38 μM ATP in 1× Kinase Buffer A.
Basic protocol for TR-FRET LanthaScreen Tb Kinase Activity Assay inhibitor studies involved two steps: Enzymatic step: Addition of 100 nl of test compound in corresponding DMSO dilutions, 5 μl of kinase/substrate mixture, 5 μl of ATP into 384 well small volume plates. Incubation for 120 minutes at room temperature.
Detection step: Addition of 10 μl EDTA & antibody, read plate after 60 minutes. Data analysis of emission ratios according to KinEASE assay protocol.
Kinase and assay components were adjusted to final concentrations according to the kit protocol.
On the technique in general: TR-FRET usually uses a lanthanide donor and a delayed reading to cut background.

Another series relates to Caco-2 cells. Description: Caco-2 bidirectional permeability. The settings on record: for Caco-2 A2B (10^−6 cm/s): A to B; for Caco-2 A2B (10^−6 cm/s) / Caco-2 B2A (10^−6 cm/s): HBSS pH 7.4, 2 hours; for Caco-2 B2A (10^−6 cm/s): B to A; for Caco-2 ER: Efflux Ratio=Papp (BA)/Papp (AB). In kind it is in vitro ADME. As to the method:
The compounds disclosed herein were tested in vitro on CaCo2 cell penetration according to the following procedures.
Test compounds were prepared in dimethyl sulfoxide (DMSO).
Caco-2 cells purchased from ATCC were seeded onto […] (PET) in 96-well Corning Insert plates at 1×10^5 cells/cm^2. The media were refreshed every 4 to 5 days until the 21st to 28th day for confluent cell monolayer formation.
Experiments were run in duplicate using a HBSS transport buffer containing 10 mM HEPES at pH 7.4. The test article TEST COMPOUND was tested bi-directionally at […] concentrations, the control compound digoxin was tested bi-directionally at 10 μM, and nadolol and metoprolol were tested at 2.0 μM in the A to B direction. Final DMSO concentrations were adjusted to less than 1%. The plates were incubated for 2 hours in a CO2 incubator at 37±1° C. with 5% CO2 at saturated humidity without shaking. Following incubation, samples were mixed with acetonitrile containing internal standard and centrifuged at 3200×g for 10 minutes. Then 200 μL of supernatant was taken from all samples. For TEST COMPOUND and digoxin, the supernatant was diluted with 200 μL of ultra-pure water and for nadolol and metoprolol, the supernatant was diluted with 600 μL of ultra-pure water. All samples were analyzed by LC-MS/MS. Concentrations of TEST COMPOUND and control compounds were determined in starting solutions, donor well solutions, and receiver well solutions using peak area ratios (PAR) of analyte to internal standard. After the transport assay, a lucifer yellow rejection assay was run to determine the Caco-2 cell monolayer integrity.
The apparent permeability (Papp), the % recovery and the efflux ratio were calculated as follows: • 1. Papp=(dCr/dt)×Vr/(A×C0) • 2. % Recovery=100×[(Vr×Cr)+(Vd×Cd)]/(Vd×C0) • 3. Efflux Ratio=Papp (BA)/Papp (AB) • Where: • dCr/dt is the slope of the cumulative concentration in the receiver compartment versus time (mM/s). • Vr and Vd is the volume in the receiver and donor compartments (0.075 mL on the apical side, 0.25 mL on the basolateral side), respectively. • A is the surface area of the cell monolayer (0.0804 cm^2). • C0 is the measured donor concentrations (μM) at the beginning of the experiment. • Cd and Cr are the final measured concentrations in the donor and receiver compartments, respectively.
The cell monolayer tight junction integrity assay was conducted after completion of the transport assay by adding Lucifer Yellow (LY) to the apical wells at 100 μM and incubating the cells for 30 minutes. Following incubation, tight junction integrity was assessed from LY concentrations in the basolateral compartment (receiver well) and the apical compartment (donor well) using fluorescence detection as follows: […]
A general note: Passage across Caco-2 layers is used to estimate intestinal permeability.

A short description of series [2]: Human hepatocyte stability, in vitro h-Hept CLpredict. In kind it is in vitro ADME. The conditions noted are these: cryopreserved hepatocytes, predicted hepatic clearance, cells without asterisk, read-out: hHep Cl. As to the method: The compounds disclosed herein were tested in vitro on human hepatocyte for in vitro h-Hept CLpredict according to the following procedures. • 1. Compound sock solutions were prepared by dissolving test compound and positive control in dimethyl sulfoxide (DMSO) at a concentration of 10 mM. Stock solutions were then diluted to 100 μM solutions by combining 198 μL of 50% acetonitrile/50% water with 2 μL of the 10 mM stock stock in separate conical tubes. • 2. Cryopreserved hepatocytes were prepared as follows: Incubation medium (William's E Medium supplemented with GlutaMAX) and hepatocyte thawing medium were placed in a 37° C. water bath and allowed to warm for at least 15 minutes prior to use. Cryopreserved hepatocytes were removed from storage, ensuring that vials remained at cryogenic temperatures until thawed. Cells were thawed by placing the vials in a 37° C. water bath and gently shaking the vials for 2 minutes. After thawing was completed, vials were sprayed with 70% ethanol and transferred to a biosafety cabinet. Hepatocytes were transferred into 50 mL conical tube containing thawing medium using wide-bore pipette tips. Tubes were placed into a centrifuge and spun at 100 g for 10 minutes. Then thawing medium was aspirated and hepatocytes were resuspended in enough incubation medium to yield−1.5×10^6 cells/mL. Cells were counted using acridine orange and propidium iodide (AO/PI) staining, and the viable cell density was determined. Cells were diluted with incubation medium to a working cell density of 0.5×10^6 viable cells/mL. • 3. To determine hepatocyte stability, 198 μL of hepatocytes were transferred into each well of a 96-well non-coated plate. Plates were placed in an incubator to allow the hepatocytes to warm for 10 minutes. • 4. The reaction was started by transferring 2 μL of the 100 μM test compound or positive control solution into respective wells of the 96-well non-coated plates. Plates were returned to the incubator until 25 μL aliquots of well contents were sampled at time points of 0, 15, 30, 60, 90 and 120 minutes. The aliquots were then mixed with 6 volumes (150 μL) of acetonitrile containing internal standard, IS (100 nM alprazolam, 200 nM caffeine and 100 nM tolbutamide) to terminate the reaction and vortexed for 5 minutes. After centrifuging the samples for 45 minutes at 3,220 g, aliquots of 100 μL of the supernatant were taken and diluted with 100 μL of ultra-pure water. The mixture was used for LC/MS/MS analysis. All incubations were performed in duplicate.
All calculations were carried out using Microsoft Excel. Peak area ratios (PAR) were determined from extracted ion chromatograms. The in vitro half-life (t1/2) of parent compound was determined by regression analysis of the percent parent disappearance vs. time curve as follows:
The in vitro half-life (in vitro t1/2) was determined from the slope value:
Conversion of the in vitro t1/2 (in minutes) into the in vitro intrinsic clearance (in vitro CLint, in μL/min/1×10^6 cells) was done using the following equation (mean of duplicate determinations): […]
The scaled-up intrinsic clearance (CLint, mL/min/kg), predicted hepatic clearance (CLH, mL/min/kg) and hepatic extraction ratio (ER) were calculated using the following equations:
CLint=(0.693/t1/2)*(1/(hepatocyte concentration (0.5*10^6 cells/mL))*scaling factors (Table (A)
• CLHept-predict=(QH*Scaled-up CLint*fub)/(QH+Scaled-up CLint*fub) • ER=CLH/QH • Where: • V=incubation volume (0.2 mL) • N=number of hepatocytes per well (0.1*10^6 cells) • QH=hepatic blood flow (mL/min/kg) (Table (A)
• fub=fraction of unbound drug in plasma, assumed to be 1 • Values used for calculation of the predicted hepatic clearance parameters data processing rules are outlined in the following tables (A) (B)

T1 sequence (Q5S007 1879-2138 limits assumed): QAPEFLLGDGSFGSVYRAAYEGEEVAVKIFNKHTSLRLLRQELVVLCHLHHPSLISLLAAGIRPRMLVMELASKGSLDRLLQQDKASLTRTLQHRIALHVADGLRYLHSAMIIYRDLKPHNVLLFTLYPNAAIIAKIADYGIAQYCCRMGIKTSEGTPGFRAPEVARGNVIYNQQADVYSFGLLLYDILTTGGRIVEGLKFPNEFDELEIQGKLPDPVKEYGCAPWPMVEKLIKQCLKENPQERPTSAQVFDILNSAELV

The molecule `Cc1n[nH]c2c1N=C(c1c(F)cccc1F)Nc1cnc(N3CC(F)(F)C3)cc1-2` [Example 2, 13-(3,3-difluoroazetidin-1-yl)-8-(2,6-difluorophenyl)-5-methyl-3,4,7,9,12-pentazatricyclo[8.4.0.02,6]tetradeca-1(10),2(6),4,7,11,13-hexaene] registered a concentration for half-maximal inhibition (IC50) in series [1] of under 2 nM. Besides, in the series on Caco-2 cells, the “Caco-2 A2B (10^−6 cm/s)” value is “H (H (High permeability)”: A2B (B2A)>5)”, the “Caco-2 B2A (10^−6 cm/s)” value was “H (H (High permeability)”: A2B (B2A)>5)” and the “Caco-2 ER” value is “N (N (Non-substrate)”: ER<2.5)”. The CLhep predicted at 1 µM in series [2] was 6.3 to 14.7 mL/min/kg.

In series [1], `COC[C@@H]1CN(c2cc3c(c(C)n2)NC(c2c(F)cccc2F)=Nc2c(C)n[nH]c2-3)CCO1` [Example 46, (2S)-4-[8-(2,6-difluorophenyl)-5,11-dimethyl-3,4,7,9,12-pentazatricyclo[8.4.0.02,6]tetradeca-1(10),2(6),4,7,11,13-hexaen-13-yl]-2-(methoxymethyl)morpholine] came in with an IC50 of under 2 nM. In the series with Caco-2 cells, the “Caco-2 A2B (10^−6 cm/s)” value is listed as “H (H (High permeability)”: A2B (B2A)>5)”, the “Caco-2 B2A (10^−6 cm/s)” value is “H (H (High permeability)”: A2B (B2A)>5)” and the “Caco-2 ER” value is reported as “N (N (Non-substrate)”: ER<2.5)”. Also, in series [2], the CLhep predicted at 1 µM is under 6.3 mL/min/kg.

`CCOC[C@H]1CN(c2cc3c(c(C)n2)NC(c2c(F)cccc2F)=Nc2c(C)n[nH]c2-3)CCO1` [Example 51, (R)-4-(5-(2,6-difluorophenyl)-3,7-dimethyl-1,6-dihydropyrazolo[4,3-d]pyrido[4,3-f][1,3]diazepin-9-yl)-2-(ethoxymethyl)morpholine] yielded a 50% inhibitory concentration (IC50) in series [1] of under 2 nM. In addition, in the series on Caco-2 cells, the “Caco-2 A2B (10^−6 cm/s)” value is reported as “M (M (Moderate permeability)”: 1≤A2B (B2A)≤5)”, the “Caco-2 B2A (10^−6 cm/s)” value was “H (H (High permeability)”: A2B (B2A)>5)” and the “Caco-2 ER” value is “N (N (Non-substrate)”: ER<2.5)”. In series [2], the CLhep predicted at 1 µM is 6.3 to 14.7 mL/min/kg.

In turn, `Cc1cc(-c2ccc3c(c2)-c2[nH]nc(C)c2N=C(c2c(F)cccc2F)N3)ccn1` [Example 52, 5-(2,6-difluorophenyl)-3-methyl-9-(2-methyl-4-pyridyl)-1,6-dihydropyrazolo [4,3-d] [1, 3] benzodiazepine] registered a concentration for half-maximal inhibition (IC50) in series [1] of under 2 nM. Also, in the series on Caco-2 cells, the “Caco-2 A2B (10^−6 cm/s)” value was “H (H (High permeability)”: A2B (B2A)>5)”, the “Caco-2 B2A (10^−6 cm/s)” value is listed as “H (H (High permeability)”: A2B (B2A)>5)” and the “Caco-2 ER” value is on record as “N (N (Non-substrate)”: ER<2.5)”. Also, the CLhep predicted at 1 µM in series [2] was 6.3 to 14.7 mL/min/kg.

Regarding `Cc1n[nH]c2c1N=C(c1c(F)cccc1F)Nc1c-2cc(N2CCOCC2)nc1C(F)F` [Example 44, 4-(7-(difluoromethyl)-5-(2,6-difluorophenyl)-3-methyl-1,6-dihydropyrazolo[4,3-d]pyrido[4,3-f][1,3]diazepin-9-yl)morpholine], in series [1], the 50% inhibitory concentration (IC50) is under 2 nM. For the same molecule, in the series on Caco-2 cells, the “Caco-2 A2B (10^−6 cm/s)” value is “H (H (High permeability)”: A2B (B2A)>5)”, the “Caco-2 B2A (10^−6 cm/s)” value is listed as “H (H (High permeability)”: A2B (B2A)>5)” and the “Caco-2 ER” value was “N (N (Non-substrate)”: ER<2.5)”. The CLhep predicted at 1 µM in series [2] is 6.3 to 14.7 mL/min/kg.

In series [1], `COc1nc(N2CCOCC2)cc2c1NC(c1c(F)cccc1F)=Nc1c(C)n[nH]c1-2` [Example 45, 4-[8-(2,6-difluorophenyl)-11-methoxy-5-methyl-3,4,7,9,12-pentazatricyclo[8.4.0.02,6]tetradeca-1(10),2(6),4,7,11,13-hexaen-13-yl]morpholine] displayed a 50% inhibitory concentration (IC50) of under 2 nM. Besides, in the series on Caco-2 cells, the “Caco-2 A2B (10^−6 cm/s)” value is “H (H (High permeability)”: A2B (B2A)>5)”, the “Caco-2 B2A (10^−6 cm/s)” value is given as “M (M (Moderate permeability)”: 1≤A2B (B2A)≤5)” and the “Caco-2 ER” value is reported as “N (N (Non-substrate)”: ER<2.5)”. Also, the CLhep predicted at 1 µM in series [2] is 6.3 to 14.7 mL/min/kg.

In series [1], `Cc1n[nH]c2c1N=C(c1c(F)cccc1F)Nc1ccc(N3C[C@H](C)O[C@@H](C)C3)cc1-2` [Example 24, (2S,6S)-4-(5-(2,6-difluorophenyl)-3-methyl-1,6-dihydrobenzo[d]pyrazolo[3,4-f][1,3]diazepin-9-yl)-2,6-dimethylmorpholine] yielded a half-inhibitory concentration (IC50) of under 2 nM. In addition, in the series with Caco-2 cells, the “Caco-2 A2B (10^−6 cm/s)” value is “H (H (High permeability)”: A2B (B2A)>5)”, the “Caco-2 B2A (10^−6 cm/s)” value is “H (H (High permeability)”: A2B (B2A)>5)” and the “Caco-2 ER” value is listed as “N (N (Non-substrate)”: ER<2.5)”. Further, in series [2], the CLhep predicted at 1 µM is 6.3 to 14.7 mL/min/kg.
